The subject of series [1] is GnRH-R expressing neurons of Gnrhr::Cre mice injected with hM4D(Gi) DREADD viral vector. To be noted: mouse, in vivo, 3 mg/kg.
For series [2] the test system is unchanged. To be noted: mouse, in vivo, 3 mg/kg. The source holds these as a separate data set.
The test system of series [3] is wild-type mice. Description: LH pulsatility by serial tail blood sampling and LH ELISA. The class given is in vivo, mouse. To be noted: continuous subcutaneous infusion by osmotic pump, 15 days. As to the method: LH assays: LH levels were determined by the previously described sensitive LH sandwich ELISA (Steyn et al., 2013). A 96-well high-affinity binding microplate (Corning) was coated with 50 μL of capture antibody (monoclonal antibody, anti-bovine LHβ subunit, 518B7; L. Sibley; University of California, UC Davis) at a final dilution of 1:1,000 (in 0.1M Na2CO3/NaHCO3, pH 9.6) and incubated overnight at 4° C. Wells were incubated with 200 μL blocking buffer (5% (w/v) skimmed milk powder in 1×PBS-T pH 7.4 (0.1 M PBS, 0.05% Tween 20 (Sigma #P9416)) for 2 hours at room temperature (RT). A standard curve was generated using a twofold serial dilution of mouse LH (reference preparation, AFP-5306A; National Institute of Diabetes and Digestive and Kidney Diseases National Hormone and Pituitary Program (NIDDK-NHPP)) in 1% (w/v) BSA (Sigma, A9418) in 1×PBS-T. The LH standards and blood samples were incubated with 50 μL of detection antibody (rabbit LH antiserum, AFP240580Rb; NIDDK-NHPP) at a final dilution of 1:10,000 for 1.5 hours at RT. […] The reaction was stopped by the addition of 50 μL of 3M HCl to each well, and the absorbance was measured at 450 nm.
Adult mice were habituated with daily handling. […] LH levels were then determined using the protocol described before. […]

In series [4] the test system is wild-type mice. As to conditions: mouse, in vivo.
Experimental: Habituation/dishabituation test. The habituation/dishabituation test was used to assess the ability to differentiate between different odours (Breton-Provencher et al., 2009). Mice were single-housed for 8 days prior to testing. This olfactory test included a presentation of acetophenone (00790, Sigma) for habituation and octantal (05608, Sigma) for dishabituation, or vice versa. Before the test, mice were allowed to explore the open-field area and an empty odour box for 30 min. After this habituation period, mice were sequentially presented with one odour for four consecutive trials for a duration of 1 min, and an inter-trial interval of 10 min was maintained to ensure the replacement of the odour. After four consecutive trials, a second odour was presented during a 1 min trial. Odours (20 μl of 1:1000 dilution) were administered on a filter paper and placed in a perforated plastic box to avoid direct contact with the odour stimulus. The measurement consisted of recording the total amount of time the mouse spent sniffing the object during different trials.
Series [5] deals with wild-type mice. To be noted: mouse, in vivo. This is another data set of the same source.
Experimental: Novel object recognition test. Recognition memory was assessed using the novel object recognition test (Leger et al., 2013). Mice were single-housed for 5 days prior to testing. On day 1, two identical objects (A+A) were placed within the open-field arena on opposite sides of the cage, equidistant from the cage walls. Each mouse was placed within the two objects and allowed to explore them for 15 min. Day 2 consisted of two phases, a familiarization and a test phase. During the familiarization phase (trial 1) that lasted 15 min, mice explored two other identical objects (B+B). After this phase, mice were placed back in its home cage for 1 hour before starting the test phase. During the test phase, one object from trial 1 and a completely new object (B+C) were placed within the open-field area and mice were allowed to explore them for 5 min (trial 2). The object recognition score was calculated as the time spent exploring the new object (trial 2) over the total exploration time, and is used to represent recognition memory function. […]

The source of these data is patent US20220202895A1, “PULSATIVE GNRH ADMINISTRATION FOR TREATING COGNITIVE DISORDERS” (INSERM (Institut National de la Santé et de la Recherche …, priority 2019, published 2022).

Entries after “also recorded” stand apart in the source; their conditions may differ.

Turning to `C[N+]1([O-])CCN(C2=Nc3cc(Cl)ccc3Nc3ccccc32)CC1` [CNO, clozapine-n-oxide], the “olfactory performance (ability to discriminate between different odors)” value in series [1] was “dramatically reduced; also recorded: impaired”. Besides, the cognitive performance entry in series [2] is recorded as “dramatically reduced; also recorded: impaired”.

“LUTRELEF®: a GnRH peptide of clinic use to restore fertility in patients with hypogonadotropic hypogonadism; GnRH acetate/diacetate (gonadorelin), Ferring Pharmaceuticals”: the “LH pulsatility (pulse frequency and amplitude)” value with wild-type mice [3] is on record as “prevented; also recorded: blunted LH pulsatility”. Moreover, the olfactory performance entry with wild-type mice [4] is given as “marked deleterious effects”. Besides, the cognitive performance entry in the series with wild-type mice [5] is recorded as “marked deleterious effects”.
